Among the data in the METLIN SMRT retention time set (Domingo-Almenara et al. 2019) are RP-LC retention time values, retold here.

The data set can be described thus: gradient 5% acetonitrile 3 min, to 50% in 2 min, to 85% in 15 min, held 3 min, 100 µL/min. To be noted: column: Zorbax Extend-C18 2.1 x 50 mm; eluents: water / acetonitrile, 0.1% formic acid. The gist of the method:
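Using water and acetonitrile that each contained 0.1% formic acid, mixtures of ~100 pure standards were separated at 100 μL/min on a Zorbax Extend-C18 column (2.1 × 50 mm, 1.8 μm). The HPLC fed a quadrupole time-of-flight mass spectrometer working in positive and negative ionization mode, with dead and dwell volumes of 40 μL and 900 μL. Data were acquired over 3 months. Retention time was read from computationally picked adduct peaks after manual inspection of each.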
In the case of `O=c1c2cc3c(cc2nc(SCc2nc(-c4ccc(F)cc4)no2)n1Cc1ccccc1)OCO3`, the RP-LC retention time was found to be 1200 s. Next, `CCc1nnc(-c2ccc3ccn(CC(=O)NCc4ccccn4)c3c2)o1`: 629 s; `O=C(Cn1cnc2ccccc2c1=O)NCCn1nc(-c2cccs2)ccc1=O`: 622 s; `O=C(Cn1cnc(-c2noc(-c3ccncc3)n2)c1)NCc1ccc(Cl)cc1`: 695 s.

Take `O=C(NCc1ccc(Br)cc1)c1ccc(=O)n(CCN2CCCC2)c1`: the RP-LC retention time worked out at 630 s.

With `Cc1ccc(-c2nnc(SCC(=O)Nc3cccc(Cl)c3C)o2)cc1`, the RP-LC retention time came to 1020 s.

For the molecule `CCc1cc(N2CCN(C(=O)c3ccc(N(C)C)cc3)CC2)nc2nncn12`, the RP-LC retention time is 586 s. As for `Cc1nnc(C2CC3(CCN(Cc4ccccc4)CC3)CN2CCc2ccccc2)o1` (centres undefined), the RP-LC retention time was 638 s.

With `COC(=O)c1ccc2c(=O)n(-c3ccc(Cl)cc3)c(N3CCC(C(N)=O)CC3)nc2c1`, the RP-LC retention time is 754 s.

As for `COc1ccc(CCc2nc3nccc(-c4ccsc4)n3n2)cc1`, the RP-LC retention time came to 946 s.

In turn, `Cc1cc(NC(=O)Cn2nc(N3CCCC3)c3ccccc3c2=O)ccc1Br` registered an RP-LC retention time of 1060 s.

`CC(C)n1nnc2cc(C(=O)N(C)CC(=O)Nc3ccc(F)cc3F)ccc21` yielded an RP-LC retention time of 744 s. `O=C(CC1CCCCC1)Nc1cccc(-c2nnc3n2CCCC3)c1` had an RP-LC retention time of 731 s. The molecule `CCOc1ccc(C(=O)NC2(c3nc(-c4cccnc4)no3)CCCCC2)cc1OCC` came in with an RP-LC retention time of 998 s. `COc1cccc(Cn2cccc(S(=O)(=O)N3CCCC3)c2=O)c1` displayed an RP-LC retention time of 807 s. `COc1ccc(CN2C(=O)COC[C@H]2C(=O)NCc2ccco2)c(OC)c1` came in with an RP-LC retention time of 704 s. `Cn1nc(C(=O)N2C[C@@H]3C[C@H](NC(=O)c4ccccc4)[C@H]2C3)c2ccccc21` yielded an RP-LC retention time of 788 s. On to `COc1cccc(OC)c1C(=O)NCCNC(=O)c1ccc(NC(=O)C2CC2)cc1`, for which the RP-LC retention time is 608 s.

For `Cc1ccc(Nc2c(-c3c(F)cccc3Cl)nc3cccc(C)n23)cc1`, the RP-LC retention time is 763 s.

`CN(C)C1(CC2CC2)CCN(C(=O)C2CC2)CC1` came in with an RP-LC retention time of 558 s. For `CC(CNC(=O)C1CCN(S(=O)(=O)c2ccc3c(c2)CCCC(=O)N3)CC1)c1ccccc1` (centres undefined), the RP-LC retention time came to 766 s. For `CCCCNC(=O)c1ccccc1NC(=O)C1CCN(C(=O)C(C)(C)C)CC1`, the RP-LC retention time is 874 s. Next, `Cc1cc(=O)n(CC(=O)Nc2cc(F)ccc2C)c(N2CCOCC2)n1`: 689 s; `Cc1cc(=O)n2nc(N3CCCC(C(=O)N4CCC(Cc5ccccc5)CC4)C3)sc2n1` (centres undefined): 726 s. Under `Cc1ccccc1-c1nc2cnccn2c1NCCC(=O)NC1CC1` stands 568 s; under `COc1ccc(-c2c(C)noc2NC(C)=O)cc1S(=O)(=O)N(C)c1ccc(C)cc1`, 830 s. Under `O=C(CN1CCCc2nc(C3CC3)ncc2C1=O)NCC1CC1` stands 638 s; under `O=C(c1ccc(F)c(F)c1)N1CCN(S(=O)(=O)c2cc3c4c(c2)CCC(=O)N4CCC3)CC1`, 807 s; under `COCCN1C(=O)CCc2cc(NS(=O)(=O)c3cc(Cl)ccc3OC)ccc21`, 803 s. The molecule `CCCCNC(=O)Cn1nc(C)c2nn(-c3ccc(Cl)cc3)c(-n3cccc3)c2c1=O` showed an RP-LC retention time of 1020 s. Next, `Cn1nccc1-c1cccc(-c2noc(-c3cccs3)n2)c1`: 1030 s; `CCc1nncn1C1CCN(S(=O)(=O)c2ccc(F)c(Cl)c2)CC1`: 734 s; `CCN1CCCn2cc(S(=O)(=O)Nc3cc(OC)ccc3OC)cc2C1=O`: 704 s. Turning to `CCCCOC(=O)CSc1nnc(-c2ccc(Br)cc2)o1`, the RP-LC retention time was determined as 1190 s. `CCC(=O)N1CCc2sc(S(=O)(=O)N3CCN(c4cccc(C)c4)CC3)cc2C1`: the RP-LC retention time came to 1010 s. `Cc1cc(=O)n(CC(=O)Nc2ccccc2)c(N2CCCC2)n1` gave an RP-LC retention time of 622 s. Under `CCOc1ccc(-c2nc(C3CC(=O)N(c4ccc(OC)cc4)C3)no2)cc1` (centres undefined) stands 1010 s; under `O=C(c1ccc(Cl)cc1)N(CCS(=O)(=O)N1CCNCC1)CC1CCCO1` (centres undefined), 581 s. `CC(C)Oc1ccc(C(=O)N2CCC3(CC2)C(=O)N(C)c2ccccc23)cc1` came in with an RP-LC retention time of 930 s. In the case of `N#CC1C=Cc2c(ccc3ccccc23)N1C(=O)c1ccccc1` (centres undefined), the RP-LC retention time was 1090 s. As to `CCc1noc2nc(C)n(CC(=O)NCc3ccc(C)cc3)c(=O)c12`, the RP-LC retention time was 829 s. Regarding `CN(C)c1cccc(-c2nc(-c3ccc4c(c3)ncn4CCC(=O)N3CCCC3)no2)c1`, the RP-LC retention time was 794 s. Turning to `CN1C(=O)c2cc(C(=O)NCc3ccccc3F)nn2CC1(C)C(=O)NC1CCCCC1` (centres undefined), the RP-LC retention time came out at 785 s. Molecule `Cc1cccc(Sc2nccnc2N2CCC(C(=O)NC3CC3)CC2)c1` yielded an RP-LC retention time of 886 s. In turn, `CCOc1ccccc1NS(=O)(=O)c1cc(-c2c(CC)noc2NC(C)=O)ccc1C` registered an RP-LC retention time of 846 s. Consider `COc1ccc(S(=O)(=O)N2CCCC(C(=O)Nc3ccc(Br)cc3)C2)cc1C` (centres undefined), for which the RP-LC retention time amounted to 1110 s.

As for `CC(C)c1cc(C(=O)NC2CCCC2)nc2ccnn12`, the RP-LC retention time worked out at 979 s. `Cc1ccc(NC(=O)Cn2c(C)nc3c(sc4nc(-c5ccccc5)ccc43)c2=O)cc1F` showed an RP-LC retention time of 1110 s.

Turning to `CC(C)c1cccc(N2C=C(C(=O)N3CCCCC3)S(=O)(=O)c3ccccc32)c1`, the RP-LC retention time is 1010 s.

Consider `CC1=C(c2ccc(C)cc2)S(=O)(=O)N=C1N1CCCN(C(=O)c2cccnc2)CC1`, for which the RP-LC retention time worked out at 687 s. `COCCNc1nc(-c2ccc(C)cc2)nnc1C` had an RP-LC retention time of 608 s. The molecule `CCOCC(=O)N1CCC(N2CC(OCC3CC3)C23CCCCC3)CC1` (centres undefined) had an RP-LC retention time of 644 s. For the molecule `Cc1cc(C)c(C(=O)N2CCC(CC(=O)NCCC(C)C)CC2)[nH]1`, the RP-LC retention time amounted to 764 s. `CSc1ccccc1C(=O)N(CCN(C)C)c1nc2ccc([N+](=O)[O-])cc2s1` returned an RP-LC retention time of 615 s. The molecule `CCNC(=O)c1nc(C(=O)NCc2ccc(C)cc2)cs1` came in with an RP-LC retention time of 811 s. The molecule `CCc1cc(=O)n(CC(=O)Nc2cc(C)ccc2C)c(N2CCOCC2)n1` showed an RP-LC retention time of 747 s. Next, `CCOC(=O)N1CCN(C(=O)CSc2nc(=O)[nH]c3c2CCC3)CC1`: 574 s; `O=C(CC1CCN(S(=O)(=O)c2ccccc2)CC1)N1CCN(c2ccccn2)CC1`: 625 s; `O=C(Cn1ccn2nc(-c3ccc(F)cc3)c(CO)c2c1=O)Nc1ccc(Br)cc1`: 891 s.
